Measurements: patent EP0149140A2, “Novel compounds” (BEECHAM GROUP PLC, priority 1983, dated 1985)

System: E coli B44 (09:K90:K99)
Assay: Protection of Neonatal Mice from Lethal Enteropathogenic E coli Infection
Assay type: in vivo
Conditions: 4 day old mice, % reduction in mortality vs placebo, 10 days; for inhibition in vivo at 0.4 mg/kg: 0.4 mg/kg (dose of hydrochloride salt) b.i.d. for four days commencing 16 hours after infection; for inhibition in vivo at 2 mg/kg: 2 mg/kg (dose of hydrochloride salt) b.i.d. for four days commencing 16 hours after infection; for inhibition in vivo at 0.08 mg/kg: 0.08 mg/kg (dose of hydrochloride salt) b.i.d. for four days commencing 16 hours after infection; for Protection %: Table 2, 10 mg/kg (dose of hydrochloride salt) b.i.d. for four days commencing 16 hours after infection
Experimental: 4 day old mice were dosed orally with 50µl of phosphate buffered saline containing 1 x 10^5 organisms/ml of E coli B44 (09:K90:K99) an enteropathogenic strain originally isolated from a scouring calf. The mice were then dosed b.i.d. with either placebo or drug as the hydrochloride salt for four days commencing 16 hours after infection. The animals were left with their mothers throughout the experiment and a daily record of deaths were made. The experiment was terminated 10 days after infection of the mice.
The mortality in the drug group was then compared with the mortality in the placebo group using the following formula:- [formula] where Mp = mortality in group receiving placebo Md = mortality in group receiving drug
Statistical analysis was performed using 2 x 2 contingency tables (single tailed 'p'). Results are given in Tables 1 and 2. 'Protection %' is the same as '% Reduction in mortality' above.

[1] = Mus musculus, intraduodenal, 240 h, Table 1

| Structure (SMILES) | inhibition in vivo at 0.4 mg/kg [1] [%] | inhibition in vivo at 2 mg/kg [1] [%] | inhibition in vivo at 0.08 mg/kg [1] [%] | also measured |
| --- | --- | --- | --- | --- |
| CNC(=S)Nc1cc(C)c(N=C2NCCN2)c(C)c1 | 43 | 69 |  |  |
| CSC(=NCc1ccc(F)cc1)Nc1cc(Cl)c(N=C2NCCN2)c(Cl)c1 |  |  | 29 | inhibition in vivo at 0.04 mg/kg (Mus musculus, intraduodenal, 240 h, Table 1, 0.04 mg/kg (dose of hydrochloride salt) b.i.d. for four days commencing 16 hours after infection): 40% |
| S=C(NCc1ccccc1)Nc1cc(Cl)c(N=C2NCCN2)c(Cl)c1 | 21 |  |  |  |
| CN=C(Nc1ccc(C)c(N=C2NCCN2)c1)SC |  |  |  | Protection %: 13% |
| CN=C(Nc1cc(Cl)c(N=C2NCCN2)c(Cl)c1)SC | 26 | 13 | 22 |  |
| CNC(=S)Nc1ccc(C)c(N=C2NCCN2)c1 |  |  |  | Protection %: 5% |
| CSC(=Nc1cc(Cl)c(N=C2NCCN2)c(Cl)c1)N(C)C |  |  | 13 |  |
| S=C(Nc1cc(Cl)c(N=C2NCCN2)c(Cl)c1)NC1CCCCC1 |  |  | 6 |  |
| CNC(=S)Nc1cc(Cl)c(N=C2NCCN2)c(Cl)c1 | 6 |  | 6 |  |
| Cc1cc(NC(=S)NCc2ccc(F)cc2)cc(C)c1N=C1NCCN1 |  | 11 |  |  |
